From patent US20260013501A1, “HERBICIDAL DERIVATIVES” (SYNGENTA CROP PROTECTION AG, priority 2022, published 2026)

How the values were obtained:
Format in all cases: in vivo
Zea mays (ZEAMX) [1] = experiment: Post-emergence Test (Table B2), ZEAMX; parameters: key: 5-point damage scale: 5=81-100%, 4=61-80%, 3=41-60%, 2=21-40%, 1=0-20%; conditions: evaluated after 13 days
Summary of the method: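 Evaluation 13 days post-spray gives percent plant damage, reported in five 20% bands (1=0-20% up to 5=81-100%). Test species, sown in soil and kept at 24/16 °C day/night with 14 h light, are treated with compound in 50:50 acetone/water plus 0.5% Tween 20, applied per g/ha.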

[2] = tested on: Echinochloa crus-galli (ECHCG); experiment: Post-emergence Test (Table B2), ECHCG; parameters: key: 5-point damage scale: 5=81-100%, 4=61-80%, 3=41-60%, 2=21-40%, 1=0-20%; conditions: evaluated after 13 days
Description: (§1) Seeds of a variety of test species are sown in standard soil in pots (Ipomoea hederacea (IPOHE), Zea mays (ZEAMX), Echinochloa crus-galli (ECHCG), Amaranthus palmeri (AMAPA), (Amaranthus retoflexus (AMARE), and (Setaria faberi (SETFA)). After 8 days cultivation under controlled conditions in a glasshouse (at 24° C./16° C., day/night; 14 hours light; 65% humidity), the plants are sprayed with an aqueous spray solution derived from the formulation of the technical active ingredient in acetone/water (50:50) solution containing 0.5% Tween 20 (polyoxyethelyene sorbitan monolaurate, CAS RN 9005-64-5). Rate of application is shown in g/ha in the tables below. The test plants are then grown in a glasshouse under controlled conditions in a glasshouse (at 24° C./16° C., day/night; 14 hours light; 65% humidity) and watered twice daily. After 13 days the test is evaluated for the percentage damage caused to the plant. The biological activities are shown in the following table on a five-point scale (5=81-100%; 4=61-80%; 3=41-60%; 2=21-40%; 1=0-20%; -=not tested).

[3] = tested on: Amaranthus palmeri (AMAPA); experiment: Post-emergence Test (Table B2), AMAPA; parameters: key: five-point scale: 5=81-100%, 4=61-80%, 3=41-60%, 2=21-40%, 1=0-20% damage; conditions: evaluated after 13 days
Description: as §1

[4] = tested on: Amaranthus retoflexus (AMARE); experiment: Post-emergence Test (Table B2), AMARE; parameters: key: five-point scale: 5=81-100%, 4=61-80%, 3=41-60%, 2=21-40%, 1=0-20% damage; conditions: evaluated after 13 days
Description: as §1

Setaria faberi (SETFA) [5] = experiment: Post-emergence Test (Table B2), SETFA; parameters: key: five-point scale: 5=81-100%, 4=61-80%, 3=41-60%, 2=21-40%, 1=0-20% damage; conditions: evaluated after 13 days
Description: as §1

[6] = tested on: Ipomoea hederacea (IPOHE); experiment: Pre-emergence Test (Table B1), IPOHE; conditions: evaluated after 13 days
[7] = tested on: Echinochloa crus-galli (ECHCG); experiment: Pre-emergence Test (Table B1), ECHCG; conditions: evaluated after 13 days
[8] = tested on: Ipomoea hederacea (IPOHE); experiment: Post-emergence Test (Table B2), IPOHE; parameters: key: five-point scale: 5=81-100%, 4=61-80%, 3=41-60%, 2=21-40%, 1=0-20% damage; conditions: evaluated after 13 days
Description: as §1

Zea mays (ZEAMX) [9] = experiment: Pre-emergence Test (Table B1), ZEAMX; conditions: evaluated after 13 days
Setaria faberi (SETFA) [10] = experiment: Pre-emergence Test (Table B1), SETFA; conditions: Rate 250 g/Ha, evaluated after 13 days
[11] = tested on: Amaranthus retoflexus (AMARE); experiment: Pre-emergence Test (Table B1), AMARE; conditions: Rate 250 g/Ha, evaluated after 13 days
[12] = tested on: Amaranthus palmeri (AMAPA); experiment: Pre-emergence Test (Table B1), AMAPA; conditions: Rate 250 g/Ha, evaluated after 13 days

CCn1c(Cc2cccc(C(F)(F)F)c2)cc(=O)c(C(=O)O)c1-c1ccc(Cl)c(Cl)c1 [Compound 8, 2-(3,4-dichlorophenyl)-1-ethyl-4-oxo-6-[[3-(trifluoromethyl)phenyl]methyl]pyridine-3-carboxylic acid]
0: percentage damage caused to the plant, ZEAMX (Zea mays (ZEAMX) [1]; rate 250 g/Ha) | percentage damage caused to the plant, ECHCG ([2]; rate 250 g/Ha) | percentage damage caused to the plant, AMAPA ([3]; rate 250 g/Ha) | percentage damage caused to the plant, AMARE ([4]; rate 250 g/Ha) | percentage damage caused to the plant, SETFA (Setaria faberi (SETFA) [5]; rate 250 g/Ha)

CCn1c(Cc2ccccc2Cl)cc(=O)c(C(=O)O)c1-c1ccc(Cl)c(Cl)c1 [Compound 16, 6-[(2-chlorophenyl)methyl]-2-(3,4-dichlorophenyl)-1-ethyl-4-oxo-pyridine-3-carboxylic acid]
0: Pre-emergence Test, percentage damage caused to the plant (five-point scale), IPOHE ([6]; Rate 1000 g/Ha) | Pre-emergence Test, percentage damage caused to the plant (five-point scale), ECHCG ([7]; Rate 1000 g/Ha) | percentage damage caused to the plant, ZEAMX (Zea mays (ZEAMX) [1]; rate 1000 g/Ha) | percentage damage caused to the plant, ECHCG ([2]; rate 1000 g/Ha) | percentage damage caused to the plant, AMAPA ([3]; rate 1000 g/Ha) | percentage damage caused to the plant, AMARE ([4]; rate 1000 g/Ha) | percentage damage caused to the plant, SETFA (Setaria faberi (SETFA) [5]; rate 1000 g/Ha)

CCn1c(Cc2cccc(C(C)C)c2)cc(=O)c(C(=O)O)c1-c1ccc(Cl)c(Cl)c1 [Compound 23, 2-(3,4-dichlorophenyl)-1-ethyl-6-[(3-isopropylphenyl)methyl]-4-oxo-pyridine-3-carboxylic acid]
0: percentage damage caused to the plant, IPOHE ([8]; rate 1000 g/Ha) | percentage damage caused to the plant, ZEAMX (Zea mays (ZEAMX) [1]; rate 1000 g/Ha) | percentage damage caused to the plant, ECHCG ([2]; rate 1000 g/Ha)

CCn1c(Cc2ccccc2OC)cc(=O)c(C(=O)O)c1-c1ccc(Cl)c(Cl)c1 [Compound 24, 2-(3,4-dichlorophenyl)-1-ethyl-6-[(2-methoxyphenyl)methyl]-4-oxo-pyridine-3-carboxylic acid]
0: percentage damage caused to the plant, IPOHE ([8]; rate 1000 g/Ha) | percentage damage caused to the plant, ZEAMX (Zea mays (ZEAMX) [1]; rate 1000 g/Ha) | percentage damage caused to the plant, ECHCG ([2]; rate 1000 g/Ha)

CCn1c(Cc2ccc(C3CC3)cc2)cc(=O)c(C(=O)O)c1-c1ccc(Cl)c(Cl)c1 [Compound 25, 6-[(4-cyclopropylphenyl)meth-yl]-2-(3,4-dichlorophenyl)-1-ethyl-4-oxo-pyridine-3-carboxylic acid]
0: percentage damage caused to the plant, IPOHE ([8]; rate 1000 g/Ha) | percentage damage caused to the plant, ECHCG ([2]; rate 1000 g/Ha)

CCn1c(Cc2cccc(SC)c2)cc(=O)c(C(=O)O)c1-c1ccc(Cl)c(Cl)c1 [Compound 31, 2-(3,4-dichlorophenyl)-1-ethyl-6-[(3-methylsulfanylphenyl)methyl]-4-oxo-pyridine-3-carboxylic acid]
0: percentage damage caused to the plant, IPOHE ([8]; rate 1000 g/Ha) | percentage damage caused to the plant, ZEAMX (Zea mays (ZEAMX) [1]; rate 1000 g/Ha) | percentage damage caused to the plant, ECHCG ([2]; rate 1000 g/Ha)

CCn1c(Cc2ccc(OC)c(OC)c2)cc(=O)c(C(=O)O)c1-c1ccc(Cl)c(Cl)c1 [Compound 34, 2-(3,4-dichlorophenyl)-6-[(3,4-dimethoxyphenyl)meth-yl]-1-ethyl-4-oxo-pyridine-3-carboxylic acid]
0: percentage damage caused to the plant, IPOHE ([8]; rate 1000 g/Ha) | percentage damage caused to the plant, ZEAMX (Zea mays (ZEAMX) [1]; rate 1000 g/Ha) | percentage damage caused to the plant, ECHCG ([2]; rate 1000 g/Ha)

CCn1c(Cc2cccc(OC)c2OC)cc(=O)c(C(=O)O)c1-c1ccc(Cl)c(Cl)c1 [Compound 38, 2-(3,4-dichlorophenyl)-6-[(2,3-dimethoxyphenyl)meth-yl]-1-ethyl-4-oxo-pyridine-3-carboxylic acid]
0: percentage damage caused to the plant, IPOHE ([8]; rate 1000 g/Ha) | percentage damage caused to the plant, ZEAMX (Zea mays (ZEAMX) [1]; rate 1000 g/Ha) | percentage damage caused to the plant, ECHCG ([2]; rate 1000 g/Ha)

CCn1c(Cc2cccc(OC)n2)cc(=O)c(C(=O)O)c1-c1ccc(Cl)c(Cl)c1 [Compound 60, 2-(3,4-dichlorophenyl)-1-ethyl-6-[(6-methoxy-2-pyridyl)methyl]-4-oxo-pyridine-3-carboxylic acid]
0: Pre-emergence Test, percentage damage caused to the plant (five-point scale), ZEAMX (Zea mays (ZEAMX) [9]; Rate 250 g/Ha) | Pre-emergence Test, percentage damage caused to the plant (five-point scale), SETFA (Setaria faberi (SETFA) [10])

CCn1c(Cc2ccc(OC)cc2F)cc(=O)c(C(=O)O)c1-c1ccc(Cl)c(Cl)c1 [Compound 89, 2-(3,4-dichlorophenyl)-1-ethyl-6-[(2-fluoro-4-methoxy-phenyl)methyl]-4-oxo-pyridine-3-carboxylic acid]
0: Pre-emergence Test, percentage damage caused to the plant (five-point scale), IPOHE ([6]; Rate 250 g/Ha) | Pre-emergence Test, percentage damage caused to the plant (five-point scale), ZEAMX (Zea mays (ZEAMX) [9]; Rate 250 g/Ha) | percentage damage caused to the plant, ECHCG ([2]; rate 250 g/Ha) | percentage damage caused to the plant, AMAPA ([3]; rate 250 g/Ha) | percentage damage caused to the plant, AMARE ([4]; rate 250 g/Ha) | percentage damage caused to the plant, SETFA (Setaria faberi (SETFA) [5]; rate 250 g/Ha)

CCn1c(Cc2ccc(F)c(C(=O)O)n2)cc(=O)c(C(=O)O)c1-c1ccc(Cl)c(Cl)c1 [Compound 98, 6-[(6-carboxy-5-fluoro-2-pyridyl)methyl]-2-(3,4-dichlorophenyl)-1-ehtyl-4-oxo-pyridine-3-carboxylic acid]
0: Pre-emergence Test, percentage damage caused to the plant (five-point scale), ZEAMX (Zea mays (ZEAMX) [9]; Rate 1000 g/Ha) | percentage damage caused to the plant, IPOHE ([8]; rate 1000 g/Ha) | percentage damage caused to the plant, ZEAMX (Zea mays (ZEAMX) [1]; rate 1000 g/Ha)

CCn1c(Cc2cc(O)cc(F)n2)cc(=O)c(C(=O)O)c1-c1ccc(Cl)c(Cl)c1 [Compound 104, 2-(3,4-dichlorophenyl)-1-ethyl-6-[(6-fluoro-4-hydroxy-2-pyridyl)methyl]-4-oxo-pyridine-3-carboxylic acid]
0: percentage damage caused to the plant, IPOHE ([8]; rate 1000 g/Ha)

CCn1c(Cc2ccc(C#N)c(=O)[nH]2)cc(=O)c(C(=O)O)c1-c1ccc(Cl)c(Cl)c1 [Compound 114, 6-[(5-cyano-6-oxo-1H-pyridin-2-yl)methyl]-2-(3,4-dichlorophenyl)-1-ethyl-4-oxo-pyridine-3-carboxylic acid]
0: percentage damage caused to the plant, ZEAMX (Zea mays (ZEAMX) [1]; rate 250 g/Ha) | percentage damage caused to the plant, ECHCG ([2]; rate 250 g/Ha) | percentage damage caused to the plant, AMAPA ([3]; rate 250 g/Ha) | percentage damage caused to the plant, AMARE ([4]; rate 250 g/Ha) | percentage damage caused to the plant, SETFA (Setaria faberi (SETFA) [5]; rate 250 g/Ha)

CCn1c(Cc2cccc(Cl)n2)cc(=O)c(C(=O)O)c1-c1ccc(OC(C)C)c(Cl)c1 [Compound 132, 2-(3-chloro-4-isopropoxy-phenyl)-6-[(6-chloro-2-pyridyl)methyl]-1-ethyl-4-oxo-pyridine-3-carboxylic acid]
0: Pre-emergence Test, percentage damage caused to the plant (five-point scale), IPOHE ([6]; Rate 250 g/Ha) | Pre-emergence Test, percentage damage caused to the plant (five-point scale), ZEAMX (Zea mays (ZEAMX) [9]; Rate 250 g/Ha) | Pre-emergence Test, percentage damage caused to the plant (five-point scale), ECHCG ([7]; Rate 250 g/Ha) | Pre-emergence Test, percentage damage caused to the plant (five-point scale), AMARE [11] | percentage damage caused to the plant, IPOHE ([8]; rate 250 g/Ha) | percentage damage caused to the plant, AMAPA ([3]; rate 250 g/Ha)

CCn1c(Cc2ccn[nH]c2=O)cc(=O)c(C(=O)O)c1-c1ccc(Cl)c(Cl)c1 [Compound 142, 2-(3,4-dichlorophenyl)-1-ethyl-4-oxo-6-[(6-oxo-1H-pyridazin-5-yl)methyl]pyridine-3-carboxylic acid]
0: Pre-emergence Test, percentage damage caused to the plant (five-point scale), ZEAMX (Zea mays (ZEAMX) [9]; Rate 250 g/Ha) | Pre-emergence Test, percentage damage caused to the plant (five-point scale), ECHCG ([7]; Rate 250 g/Ha) | Pre-emergence Test, percentage damage caused to the plant (five-point scale), SETFA (Setaria faberi (SETFA) [10])

CCn1c(Cc2nccnc2Cl)cc(=O)c(C(=O)O)c1-c1ccc(Cl)c(Cl)c1 [Compound 144, 6-[(3-chloropyrazin-2-yl)methyl]-2-(3,4-dichlorophenyl)-1-ethyl-4-oxo-pyridine-3-carboxylic acid]
0: Pre-emergence Test, percentage damage caused to the plant (five-point scale), IPOHE ([6]; Rate 250 g/Ha) | Pre-emergence Test, percentage damage caused to the plant (five-point scale), ZEAMX (Zea mays (ZEAMX) [9]; Rate 250 g/Ha) | Pre-emergence Test, percentage damage caused to the plant (five-point scale), ECHCG ([7]; Rate 250 g/Ha) | Pre-emergence Test, percentage damage caused to the plant (five-point scale), AMAPA [12] | Pre-emergence Test, percentage damage caused to the plant (five-point scale), SETFA (Setaria faberi (SETFA) [10])

CCn1c(Cc2cnc3ccccc3n2)cc(=O)c(C(=O)O)c1-c1ccc(Cl)c(Cl)c1 [Compound 145, 2-(3,4-dichlorophenyl)-1-ethyl-4-oxo-6-(quinoxalin-2-ylmethyl)pyridine-3-carboxylic acid]
0: Pre-emergence Test, percentage damage caused to the plant (five-point scale), IPOHE ([6]; Rate 250 g/Ha) | Pre-emergence Test, percentage damage caused to the plant (five-point scale), ZEAMX (Zea mays (ZEAMX) [9]; Rate 250 g/Ha) | Pre-emergence Test, percentage damage caused to the plant (five-point scale), AMARE [11] | Pre-emergence Test, percentage damage caused to the plant (five-point scale), SETFA (Setaria faberi (SETFA) [10])
